Data: US11583572B2, “Encapsulation of ultra-stable insulin analogues with polymer melts” (CASE WESTERN RESERVE UNIVERSITY, priority 2015, dated 2023)
Bridges are numbered along the chain shown (N, C = ends). Where no end group is shown, it is not given here.

Tests used:
[1] = target: A isoform of the insulin receptor (Homo sapiens, UniProt P06213)
[2] = Elution of protein from PLGA polymer cylinders in phosphate-buffered saline (Bradford assay calibrated by ELISA); type: physicochemical; conditions: 5% PEG, PBS pH 7.4, 37° C.
Experimental: FIG. 4 is a graph showing elution of ultra-stable single-chain analogue (SCI) from PLGA polymer (50-50%) in phosphate-buffered saline (pH 7.4 and 37° C.). Horizontal axis denotes soaking time. Vertical axis denotes nanograms of insulin analogue (dark gray triangles) or relative Bradford-active material in control polymers containing hen egg white lysozyme (light gray squares) or no protein (dark gray diamonds). The latter represents background signal in the Bradford assay due to non-protein material. Horizontal plateau at days 10-15 represents no further elution of protein from the polymers. Samples were made with 5% PEG (mean molecular mass 8 kDa) to optimize the near-linear rate of SCI elution between 1-10 days. Immediate burst release of a portion of the material is not shown.
Elution of insulin analogue protein from a polymer melt in phosphate buffered saline (PBS) at pH 7.4 was also examined. Test cylindrical polymers were prepared with 50%-50% PLGA containing 25% weight/weight of a single-chain insulin (SCI) analogue stabilized by a fourth disulfide bridge between residues B4 and A10. […]
The cumulative amounts of protein released are also provided below in Table 1. In this table the micrograms of insulin corresponding to the Bradford assay was verified by ELISA whereas the readings for lysozyme are uncalibrated by an independent assay.

Chain of A isoform of the insulin receptor (P06213 28-746 isoform P06213-2 limits assumed): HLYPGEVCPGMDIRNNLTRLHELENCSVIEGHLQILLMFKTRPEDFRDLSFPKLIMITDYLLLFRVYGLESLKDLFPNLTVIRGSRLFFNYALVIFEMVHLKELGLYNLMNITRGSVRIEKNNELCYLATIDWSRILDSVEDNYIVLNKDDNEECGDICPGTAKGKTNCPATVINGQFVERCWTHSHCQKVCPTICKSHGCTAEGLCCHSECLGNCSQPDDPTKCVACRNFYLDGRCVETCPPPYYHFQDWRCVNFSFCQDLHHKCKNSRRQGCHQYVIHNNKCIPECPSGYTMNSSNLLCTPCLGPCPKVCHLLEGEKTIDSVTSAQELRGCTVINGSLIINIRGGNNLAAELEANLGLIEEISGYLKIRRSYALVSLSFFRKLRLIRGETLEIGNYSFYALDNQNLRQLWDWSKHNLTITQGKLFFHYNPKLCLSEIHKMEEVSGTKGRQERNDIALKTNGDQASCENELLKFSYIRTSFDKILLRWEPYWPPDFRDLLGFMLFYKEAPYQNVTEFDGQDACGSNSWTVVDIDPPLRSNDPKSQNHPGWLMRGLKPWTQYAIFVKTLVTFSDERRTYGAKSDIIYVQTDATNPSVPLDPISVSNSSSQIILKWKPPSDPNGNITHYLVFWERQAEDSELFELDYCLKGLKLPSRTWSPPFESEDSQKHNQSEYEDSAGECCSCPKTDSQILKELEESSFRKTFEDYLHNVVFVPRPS
Chain of A isoform of the insulin receptor (P06213 763-1382 partner limits assumed): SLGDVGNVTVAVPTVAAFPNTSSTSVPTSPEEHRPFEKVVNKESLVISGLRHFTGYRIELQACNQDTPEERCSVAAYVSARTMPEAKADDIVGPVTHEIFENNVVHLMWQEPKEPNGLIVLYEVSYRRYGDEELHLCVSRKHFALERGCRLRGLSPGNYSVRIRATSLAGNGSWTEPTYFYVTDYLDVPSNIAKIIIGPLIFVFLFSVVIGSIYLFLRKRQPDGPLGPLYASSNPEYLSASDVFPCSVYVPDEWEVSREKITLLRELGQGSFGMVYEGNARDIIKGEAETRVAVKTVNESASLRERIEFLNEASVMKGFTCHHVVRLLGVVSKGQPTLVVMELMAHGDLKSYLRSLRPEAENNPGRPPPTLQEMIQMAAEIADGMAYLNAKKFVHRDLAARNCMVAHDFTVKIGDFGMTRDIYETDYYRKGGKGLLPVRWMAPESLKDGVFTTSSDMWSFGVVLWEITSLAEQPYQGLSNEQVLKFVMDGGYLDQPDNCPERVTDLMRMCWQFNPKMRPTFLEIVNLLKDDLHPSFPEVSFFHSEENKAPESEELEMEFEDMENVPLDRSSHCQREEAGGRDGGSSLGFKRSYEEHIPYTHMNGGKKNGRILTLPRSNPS

Substance | affinity for the A isoform of the insulin receptor relative to human insulin [1] | protein release from PLGA polymer during days 10-15 [2]
FVNCHLCGSHLVEALYLVCGERGFFYTDPTEEGPRRGIVEQCCHSCCSLEQLENYCN (disulfide 4-46, 7-43, 19-56, 42-47) [4SS 81-04] | 120±20% | 
hen egg-white lysozyme: control protein in analogous co-polymer instead of an insulin analogue |  | no further release
